Assay results taken from patent US20070213291A1, “Therapeutically useful synthetic oligonucleotides” (priority 1999, published 2007).

How the values were obtained:
Assay type in all cases: cell-based
[1] = system: chimpanzee PBMCs; test: Cytokine production by chimpanzee PBMC (ELISA); conditions: PBMC of 4 healthy chimpanzees, 100 μg/ml, 48 h
Experimental: (§1) Unless stated otherwise, 1×10^6 cells were incubated with 100 μg/ml of each of the sequences tested for 48 h at 37° C. in 5% CO2. Production of cytokines IL-6, IL-10, IL-12, IL-1beta and TNF-alpha was determined in pg/ml in 100 μl of culture supernatant using the appropriate commercial ELISA (BioSource, Camarillo Calif.). The IL-12 ELISA measures both IL-12 p70 complex and free p40 subunit. Results are expressed as the “fold” (×) increase in cytokine production by treated cells compared to control cells.
PBMCs were isolated from 4 healthy chimpanzees as in Example 35. Chimpanzee PBMCs were incubated with 6 base GT, AGT, CGT, AG, CG and GG sequences and production of the cytokines IL-10, IL-12 and TNF-alpha was determined (Table 41).

[2] = system: Jurkat human leukemia T cells; test: Inhibition of Jurkat human leukemia T cell proliferation (MTT reduction); conditions: for % INHIBITION of Jurkat human leukemia T cell proliferation: 100 μg/ml sequence, 48 h, 2.5×10^5 cells/ml; for % INHIBITION of Jurkat proliferation at suboptimal concentration: 5.0 μg/ml of each 6 base sequence, alone or two together
Experimental: Cells were seeded in 6 (1 ml/well), 24 (0.5 ml/well) or 96 (0.1 ml/well) well flat-bottom microplates and were maintained at 37° C. in a 5% CO2 atmosphere. Unless stated otherwise, 2.5×10^5 cells/ml were incubated with 0 μg/ml (control) and 100 μg/ml (treated) of 2 to 45 base sequences containing A, C, G and T for 48 h.
MTT was measured at a wavelength of 570 nm using a multiplate spectrophotometer reader (ELX800, Bio-TEK Instruments Inc., Winooski, Vt.).
Jurkat human leukemia T cells are an atypical multi-drug resistant human suspension tumor cell model.

[3] = system: human peripheral blood mononuclear cells; test: Cytokine production by human PBMC (ELISA); conditions: PBMC of 7 healthy humans, 100 μg/ml, 48 h
Experimental: as §1
Peripheral blood mononuclear cells (hereinafter, “PBMCs”) were isolated from 7 healthy humans by Ficoll-Hypaque (Amersham Pharmacia Biotech, Baie d'Urfée, Québec, Canada) by density gradient centrifugation of whole blood. PBMCs were incubated with 6 base GT, AGT, CGT, AG, CG and GG sequences and production of the cytokines IL-1beta, IL-6, IL-10 and IL-12 were determined.

[4] = system: THP-1 human acute monocytic leukemia cells; test: Cytokine production by THP-1 cells (ELISA); conditions: THP-1, 1×10^6 cells, 100 μg/ml, 48 h; for ↑ IL-12 (fold increase treated vs control cells): p70 complex and free p40
Experimental: as §1
THP-1 human acute monocytic leukemia cells were incubated with 2, 3, 6, 9, 12, 14, 15 and 18 base GT sequences and production of the cyotkine IL-6 was determined (Table 35).
THP-1 human acute monocytic leukemia cells were incubated with 6 base GT, AG, CG, GG, AGT and CGT sequences and production of the cytokines IL-12 and IL-6 was determined (Table 36).
THP-1 human acute monocytic leukemia cells were incubated with 6 base GT sequences, having either an oxygen (phosphodiester) or a sulfur (phosphorothioate) as the nonbridging atom on the phosphate groups and production of the cytokine IL-12 was determined (Table 39).
THP-1 human acute monocytic leukemia cells were incubated with 6 base GT SEQ ID NO:25, having either an oxygen (phosphodiester) or a sulfur (phosphorothioate) as the nonbridging atom on the phosphate groups and production of the cytokine IL-12 was determined (Table 40).

[5] = system: rhesus monkey PBMCs; test: Cytokine production by rhesus monkey PBMC (ELISA); conditions: PBMC of 4 healthy rhesus monkeys, 100 μg/ml, 48 h
Experimental: as §1
PBMCs were isolated from 4 healthy rhesus monkeys as in Example 35. PBMCs were incubated with 6 base GT, AGT, CGT, AG, CG ands GG sequences and production of the cytokines IL-6, IL-12 and TNF-alpha was determined (Table 42).

[6] = system: Jurkat human leukemia T cells; test: Cell cycle stage in Jurkat cells (propidium iodide flow cytometry); conditions: Jurkat, 24 h, 100 μg/ml
Experimental: Cell cycle stage was determined using a […]™ PLUS DNA commercial kit (Becton Dickinson). Briefly, nuclei from cells were obtained by dissolving the cell membrane in a nonionic detergent, eliminating the cell cytoskeleton and nuclear proteins with trypsin, digesting the cellular RNA with RNase and stabilizing the nuclear chromatin with spermine. Propidium iodide was added to the cell nuclei and their fluorescence was analyzed in a flow cytometer equipped with electronic doublet discrimination capability (FACSCalibur, Becton Dickinson, San Jose, Calif.). Accumulation of cells in G0/G1, early S (SE), mid S (SM), late S (SL) or G2/M phases of the cell cycle was analyzed using MODFIT LT software (Verity Software House Inc., Topsham, Mass.).
Exponentially growing Jurkat human leukemia T cells (Table 28) and MCF-7 human breast cancer cells (5×10^5 cells/ml) (Table 29) were incubated for 24 h with 2, 6, 15, 18, 27 and 45 base sequences containing A, C, G and T. The cells were collected and centrifuged and cell cycle stage was determined.
Jurkat human cell leukemia T cells (1×10^6 cells/ml) were incubated for 24 h with 6 base GT SEQ ID NO:25, conplementary 6 base AC SEQ ID NO:79 and 6 base GT SEQ ID NO:25+6 base AC SEQ ID NO:79. GT SEQ ID NO:25 and AC SEQ ID NO:79 were hybridized by mixing the oligonucleotides (1:1) and heating for 10 minutes at 65° C. As controls, GT SEQ ID NO:25 and AC SEQ ID NO:79 were heated for 10 minutes at 65° C. (Table 30).

| Sequence | IL-10 fold increase: mean +/− SD [1] | IL-12 fold increase: mean +/− SD [1] | TNF-alpha fold increase: mean +/− SD [1] | % INHIBITION of Jurkat human leukemia T cell proliferation [2] [%] | IL-1 beta fold increase: mean +/− SD [3] | IL-6 fold increase: mean +/− SD [3] | IL-10 fold increase: mean +/− SD [3] | IL-12 fold increase: mean +/− SD [3] | ↑ IL-6 (fold increase treated vs control cells) [4] [x] | ↑ IL-12 (fold increase treated vs control cells) [4] [x] | IL-10 fold increase: mean +/− SD [5] | IL-12 fold increase: mean +/− SD [5] | TNF-alpha fold increase: mean +/− SD [5] | % INHIBITION of Jurkat proliferation at suboptimal concentration [2] [%] | % of cells in phase: G0/G1 [6] [%] | % of cells in phase: G2/M [6] [%] | % of cells in phase: SE [6] [%] | % of cells in phase: SL [6] [%] | % of cells in phase: SM [6] [%] | Arrest (cell cycle) [6] |
| --- | --- | --- | --- | --- | --- | --- | --- | --- | --- | --- | --- | --- | --- | --- | --- | --- | --- | --- | --- | --- |
| CTGTCT [SEQ ID NO:36] | 3.0 +/− 2.1 fold increase | 13.4 +/− 8.9 fold increase | 12.4 +/− 6.3 fold increase | 19 | 1.2 +/− 0.3 fold increase | 5.3 +/− 3.6 fold increase | 1.0 +/− 0.1 fold increase | 1.2 +/− 0.3 fold increase | 15.9 | 2.0 | 1.0 +/− 0.1 fold increase | 10.7 +/− 4.6 fold increase | 15.3 +/− 3.6 fold increase |  |  |  |  |  |  |  |
| GTGTGTGTGTGT [SEQ ID NO:14] |  |  |  | 51 | 1.1 +/− 0.2 fold increase | 2.0 +/− 1.5 fold increase | 1.0 +/− 0.1 fold increase | 2.0 +/− 1.1 fold increase | 1.3 |  |  |  |  |  |  |  |  |  |  |  |
| TGGTTG [SEQ ID NO:29] | 3.1 +/− 2.0 fold increase | 13.6 +/− 8.8 fold increase | 12.4 +/− 7.3 fold increase | 42 | 1.7 +/− 1.0 fold increase | 9.3 +/− 12.1 fold increase | 1.0 +/− 0.1 fold increase | 3.3 +/− 4.2 fold increase | 10.5 | 4.1 | 1.1 +/− 0.2 fold increase | 11.1 +/− 4.2 fold increase | 16.5 +/− 2.7 fold increase | −1 |  |  |  |  |  |  |
| TCGTTC [SEQ ID NO:37] | 3.4 +/− 2.6 fold increase | 14.1 +/− 10.0 fold increase | 11.4 +/− 6.4 fold increase | 20 | 1.2 +/− 0.4 fold increase | 7.5 +/− 9.8 fold increase | 1.0 +/− 0.1 fold increase | 1.4 +/− 1.1 fold increase | 12.9 | 2.2 | 1.1 +/− 0.2 fold increase | 10.0 +/− 3.8 fold increase | 14.7 +/− 3.1 fold increase |  |  |  |  |  |  |  |
| GGCCGG [SEQ ID NO:43] | 13.6 +/− 9.0 fold increase | 15.1 +/− 10.2 fold increase | 14.0 +/− 6.6 fold increase | 29 | 1.5 +/− 0.9 fold increase | 14.9 +/− 10.2 fold increase | 1.2 +/− 0.3 fold increase | 2.5 +/− 2.0 fold increase | 17.1 | 3.1 | 1.0 +/− 0.2 fold increase | 11.7 +/− 4.8 fold increase | 16.9 +/− 3.5 fold increase |  | 26.5 | 18.7 | 21.3 | 10.7 | 22.8 | End SM |
| GGAAGG (unmodified DNA) [SEQ ID NO:42] | 9.9 +/− 8.9 fold increase | 15.6 +/− 10.6 fold increase | 14.4 +/− 7.1 fold increase | 22 | 3.5 +/− 3.9 fold increase | 11.8 +/− 5.8 fold increase | 1.1 +/− 0.2 fold increase | 3.0 +/− 2.7 fold increase | 29.2 | 4.1 | 1.2 +/− 0.2 fold increase | 11.9 +/− 5.4 fold increase | 16.5 +/− 4.5 fold increase |  | 48.0 | 34.1 | 19.8 | 5.8 | 8.5 | End |
| ATGTAT (unmodified DNA) [SEQ ID NO:30] | 1.4 +/− 0.4 fold increase | 10.7 +/− 7.0 fold increase | 5.9 +/− 3.3 fold increase | 16 | 1.1 +/− 0.2 fold increase | 4.6 +/− 4.4 fold increase | 1.0 +/− 0.1 fold increase | 1.3 +/− 0.2 fold increase | 9.8 | 4.8 | 1.9 +/− 1.4 fold increase | 6.0 +/− 1.9 fold increase | 6.9 +/− 4.7 fold increase |  |  |  |  |  |  |  |
| GGTTGG [SEQ ID NO:41] | 9.1 +/− 7.7 fold increase | 15.3 +/− 10.0 fold increase | 14.1 +/− 7.3 fold increase | 43 | 3.2 +/− 3.0 fold increase | 7.8 +/− 12.8 fold increase | 1.0 +/− 0.1 fold increase | 4.9 +/− 8.6 fold increase | 16.0 | 3.3 | 1.9 +/− 1.5 fold increase | 11.5 +/− 5.9 fold increase | 14.1 +/− 8.2 fold increase | 4 |  |  |  |  |  |  |
